Read-outs that look alike come from different tables or passages of the source.

The values that follow come from patent publication US8957093B2, “N-biphenylmethylindole modulators of PPARG” (The Scripps Research Institute, priority 2011, dated 2015).

For one experiment, the target named is GST-PPARG-LBD (Homo sapiens (Human), UniProt P37231). Nature of the experiment: Lanthascreen PPARG competitive binding assay (Invitrogen, TR-FRET). The settings on record: Lanthascreen competitive binding; NA = not active; inc = incomplete curve; read-out: IC50 (nM) Lantha. Put shortly:
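Values are fold change in 520 nm/490 nm FRET ratio relative to a 2% DMSO no-ligand control, excitation 340 nm. Compound dilutions starting at 10 μM competed against 5 nM Fluormone Pan-PPAR Green for GST-PPARG-LBD bound by 5 nM Tb anti-GST antibody. Incubation 2 h in the dark in assay buffer C, triplicate wells.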

For experiment [1], the system named is PPARG (murine PPARg2 or full-length human PPARG, 3xPPRE-luciferase reporter). Nature of the experiment: Cell-based PPRE-luciferase transactivation assay in COS-1 cells. To be noted: for EC50: PPRE-luciferase, COS-1 cells, NA = not active, read-out: EC50 (nM) PPRE. As for the experimental part: Cell-Based Transactivation Assay:
PPRE is a DNA that contains a binding site for PPARG; thus PPRE is a PPAR response element, used herein as a promoter reporter. The binding site is a DR1 response element with the sequence AGGTCA repeated 3 times in tandem and then fused to a construct for luciferase.
Thus, PPRE is the basis of the cell based transactivation assay described below. The plasmid DNA is co-transfected along with a plasmid for PPARG into COS-1 cells. After an overnight incubation, cells are treated with DMSO or compounds.
Confluent COS-1 cells were transfected with 4.5 μg murine PPARg2-pSV Sport or full-length human PPAR9-pSport6, 4.5 μg 3×PPRE-luciferase reporter and 27 μL X-treme Gene 9 transfection reagent in serum-free opti-mem media (Gibco), followed by overnight incubation at 37° C., 5% CO2. Transfected cells were plated in white Perkin Elmer 384-well plates and incubated 4 hours. […] After 18 hour incubation, treated cells were developed with Brite Lite Plus (Perkin Elmer) and read in 384-well Luminescence Perkin Elmer EnVision Multilabel plate reader. Graphs were plotted in triplicate in GraphPad Prism Software as fold change of treated cells over DMSO control cells.

Sequence of GST-PPARG-LBD (P37231 238-503): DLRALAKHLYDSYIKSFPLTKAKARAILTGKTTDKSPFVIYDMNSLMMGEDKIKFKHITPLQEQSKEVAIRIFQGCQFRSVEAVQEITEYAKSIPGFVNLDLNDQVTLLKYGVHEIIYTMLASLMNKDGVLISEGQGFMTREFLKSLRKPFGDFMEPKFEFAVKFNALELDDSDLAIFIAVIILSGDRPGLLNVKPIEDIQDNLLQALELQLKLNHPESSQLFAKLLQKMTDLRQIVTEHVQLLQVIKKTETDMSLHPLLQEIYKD

`CCC[C@H](NC(=O)c1ccc2c(c1)c(C)c(C)n2Cc1ccc(-c2ccccc2C(=O)O)cc1)c1ccccc1` [Example 114, (S)-4′-((2,3-dimethyl-5-(1-phenylbutylcarbamoyl)-1H-indol-1-yl)methyl)biphenyl-2-carboxylic acid]: on GST-PPARG-LBD, the IC50 came to 0.8 nM. Also, the EC50 in experiment [1] turned out to be 8 nM. The “PPRE transactivation (% in parentheses)” value in experiment [1] (rosiglitazone = 100%) was “(14%)”.

Regarding `CCC(NC(=O)c1ccc2c(ccn2Cc2cccc(-c3ccccc3C(=O)O)c2)c1)c1ccccc1` (centres unmarked) [Example 65, 3′-((5-((1-phenylpropyl)carbamoyl)-1H-indol-1-yl)methyl)-[1,1′-biphenyl]-2-carboxylic acid], the IC50 on GST-PPARG-LBD was determined as 6 nM. Moreover, the EC50 in experiment [1] is 116 nM. Further, the “PPRE transactivation (% in parentheses)” value in experiment [1] (rosiglitazone = 100%) is on record as “(18%)”.

With `Cc1c(C)n(Cc2ccc(-c3ccccc3C(=O)O)cc2)c2ccc(C(=O)NCc3ccccc3Br)cc12` [Example 118, 4′-((5-((2-Bromobenzyl)carbamoyl)-2,3-dimethyl-1H-indol-1-yl)methyl)-[1,1′-biphenyl]-2-carboxylic acid], the IC50 on GST-PPARG-LBD is 17 nM. Further, the EC50 in experiment [1] stood at 86 nM. Also, the “PPRE transactivation (% in parentheses)” value in experiment [1] (rosiglitazone = 100%) is “(8%)”.

As for `Cc1c(C)n(Cc2ccc(-c3ccccc3C(=O)O)cc2)c2ccc(C(=O)NCc3ccc(C(C)C)cc3)cc12` [compound 9, 4′-((5-(4-Isopropylbenzylcarbamoyl)-2,3-dimethyl-1H-indol-1-yl)methyl)biphenyl-2-carboxylic acid], the half-inhibitory concentration (IC50) at GST-PPARG-LBD came out at 23 nM. Further, in experiment [1], the EC50 was 7 nM. The “PPRE transactivation (% in parentheses)” value in experiment [1] (rosiglitazone = 100%) is given as “(18%)”.

`Cc1c(C)n(Cc2ccc(-c3ccccc3C(=O)O)cc2)c2ccc(C(=O)NCc3cccc(Cl)c3)cc12` [Example 109, 4′-((5-(3-chlorobenzylcarbamoyl)-2,3-dimethyl-1H-indol-1-yl)methyl)biphenyl-2-carboxylic acid]: the IC50 at GST-PPARG-LBD is 2 nM. Besides, the EC50 in experiment [1] was 12 nM. For the same compound, the “PPRE transactivation (% in parentheses)” value in experiment [1] (rosiglitazone = 100%) was “(21%)”.

For the compound `Cc1c(C)n(Cc2ccc(-c3ccccc3C(=O)O)cc2)c2ccc(C(=O)NCc3ccccc3Cl)cc12` [Example 108, 4′-((5-(2-chlorobenzylcarbamoyl)-2,3-dimethyl-1H-indol-1-yl)methyl)biphenyl-2-carboxylic acid], the IC50 at GST-PPARG-LBD came to 6 nM. In experiment [1], the EC50 was 535 nM. Further, the “PPRE transactivation (% in parentheses)” value in experiment [1] (rosiglitazone = 100%) is “(15%)”.

`C[C@H](NC(=O)c1ccc2c(ccn2Cc2ccc(-c3ccccc3C(=O)O)cc2)c1)c1ccc(Br)cc1` [Example 130, (S)-4′-((5-((1-(4-Bromophenyl)ethyl)carbamoyl)-1H-indol-1-yl)methyl)-[1,1′-biphenyl]-2-carboxylic acid]: the half-maximal inhibitory concentration (IC50) on GST-PPARG-LBD came out at 163 nM. Further, the “PPRE transactivation (% in parentheses)” value in experiment [1] (rosiglitazone = 100%) is listed as “(0%)”.

For `C[C@H](NC(=O)c1ccc2c(ccn2Cc2ccc(-c3ccc(O)cc3)cc2)c1)c1ccc([N+](=O)[O-])cc1` [Example 47, (S)-1-((4′-Hydroxy-[1,1′-biphenyl]-4-yl)methyl)-N-(1-(4-nitrophenyl)ethyl)-1H-indole-5-carboxamide], the IC50 on GST-PPARG-LBD was 300 nM. Also, the “PPRE transactivation (% in parentheses)” value in experiment [1] (rosiglitazone = 100%) was “(0%)”.

For `Cc1c(C)n(Cc2ccc(-c3ccccc3C(=O)O)cc2)c2ccc(C(=O)NC3CCCC3)cc12` [Example 90, 4′-((5-(cyclopentylcarbamoyl)-2,3-dimethyl-1H-indol-1-yl)methyl)biphenyl-2-carboxylic acid], the IC50 on GST-PPARG-LBD is 25 nM. Further, the half-maximal effective concentration (EC50) in experiment [1] was more than 1000 nM. In addition, in experiment [1] (rosiglitazone = 100%), the “PPRE transactivation (% in parentheses)” value was “(18%)”.

For the compound `Cc1c(C)n(Cc2ccc(-c3ccccc3C(=O)O)cc2)c2ccc(C(=O)NCc3ccc(S(N)(=O)=O)cc3)cc12` [compound 17, 4′-((2,3-Dimethyl-5-(4-sulfamoylbenzylcarbamoyl)-1H-indol-1-yl)methyl)biphenyl-2-carboxylic acid], the IC50 at GST-PPARG-LBD was 300 nM. In addition, the “PPRE transactivation (% in parentheses)” value in experiment [1] (rosiglitazone = 100%) was “(0%)”.

On to `COc1ccc(CNC(=O)c2ccc3c(c2)c(C)c(C)n3Cc2ccc(-c3ccccc3C(=O)O)cc2)c(OC)c1` [compound 20, 4′-((5-(2,4-Dimethoxybenzylcarbamoyl)-2,3-dimethyl-1H-indol-1-yl)methyl)biphenyl-2-carboxylic acid], for which the IC50 on GST-PPARG-LBD was 16 nM. For the same compound, the “PPRE transactivation (% in parentheses)” value in experiment [1] (rosiglitazone = 100%) is reported as “(0%)”.

In the case of `Cc1c(C)n(Cc2ccc(-c3ccccc3C(=O)O)cc2)c2ccc(C(=O)N[C@@H]3COc4ccccc4C3)cc12` [Example 250, (S)-4′-((5-(chroman-3-ylcarbamoyl)-2,3-dimethyl-1H-indol-1-yl)methyl)-[1,1′-biphenyl]-2-carboxylic acid], the IC50 at GST-PPARG-LBD was 88 nM. The “PPRE transactivation (% in parentheses)” value in experiment [1] (rosiglitazone = 100%) was “(0%)”.

As for `COc1cccc([C@H](C)NC(=O)c2ccc3c(c2)c(C)c(C)n3Cc2ccc(-c3ccccc3C(=O)O)cc2)c1` [compound 21, (S)-4′-((5-(1-(3-Methoxyphenyl)ethylcarbamoyl)-2,3-dimethyl-1H-indol-1-yl)methyl)biphenyl-2-carboxylic acid], the IC50 on GST-PPARG-LBD came out at 13 nM. Besides, the EC50 in experiment [1] was 46 nM. The “PPRE transactivation (% in parentheses)” value in experiment [1] (rosiglitazone = 100%) is “(12%)”.

As for `Cc1c(C)n(Cc2ccc(-c3ccccc3C(=O)O)cc2)c2ccc(C(=O)NC(C)c3cccc4ccccc34)cc12` (centres unmarked) [Example 116, 4′-((2,3-dimethyl-5-(1-(naphthalen-1-yl)ethylcarbamoyl)-1H-indol-1-yl)methyl)biphenyl-2-carboxylic acid], at GST-PPARG-LBD, the IC50 turned out to be 2 nM. Moreover, the EC50 in experiment [1] turned out to be 5 nM. Besides, the “PPRE transactivation (% in parentheses)” value in experiment [1] (rosiglitazone = 100%) is on record as “(16%)”.

For `Cc1c(C)n(Cc2ccc(-c3ccccc3C(=O)O)cc2)c2ccc(C(=O)NCc3ccc(F)cc3)cc12` [Example 76, 4′-((5-(4-fluorobenzylcarbamoyl)-2,3-dimethyl-1H-indol-1-yl)methyl)biphenyl-2-carboxylic acid], the 50% inhibitory concentration (IC50) on GST-PPARG-LBD amounted to 5 nM. Also, the EC50 in experiment [1] was 23 nM. Further, the “PPRE transactivation (% in parentheses)” value in experiment [1] (rosiglitazone = 100%) was “(15%)”.

With `Cc1c(C)n(Cc2ccc(-c3ccccc3C(=O)O)cc2)c2ccc(C(=O)NC(C)CCc3ccccc3)cc12` (centres unmarked) [Example 117, 4′-((2,3-dimethyl-5-(4-phenylbutan-2-ylcarbamoyl)-1H-indol-1-yl)methyl)biphenyl-2-carboxylic acid], the IC50 on GST-PPARG-LBD turned out to be 3 nM. Besides, the EC50 in experiment [1] came out at 3 nM. Moreover, the “PPRE transactivation (% in parentheses)” value in experiment [1] (rosiglitazone = 100%) is “(17%)”.

On to `COc1ccc(CNC(=O)c2ccc3c(c2)c(C)c(C)n3Cc2ccc(-c3ccccc3C(=O)O)cc2)cc1OC` [compound 24, 4′-((5-(3,4-Dimethoxybenzylcarbamoyl)-2,3-dimethyl-1H-indol-1-yl)methyl)biphenyl-2-carboxylic acid], for which, on GST-PPARG-LBD, the IC50 was 125 nM. In addition, the “PPRE transactivation (% in parentheses)” value in experiment [1] (rosiglitazone = 100%) is on record as “(0%)”.

As to `Cc1c(C)n(Cc2ccc(-c3ccccc3C(=O)O)cc2)c2ccc(C(=O)NCc3ccc(C#N)cc3)cc12` [compound 8, 4′-((5-(4-Cyanobenzylcarbamoyl)-2,3-dimethyl-1H-indol-1-yl)methyl)biphenyl-2-carboxylic acid], at GST-PPARG-LBD, the IC50 was determined as 34 nM. Also, the EC50 in experiment [1] came out at 9000 nM. Moreover, the “PPRE transactivation (% in parentheses)” value in experiment [1] (rosiglitazone = 100%) was “(12%)”.

With `Cc1c(C)n(Cc2ccc(-c3ccccc3C(=O)O)cc2)c2ccc(C(=O)NC(C)(C)c3ccccc3)cc12` [compound 25, 4′-((2,3-Dimethyl-5-((2-phenylpropan-2-yl)carbamoyl)-1H-indol-1-yl)methyl)-[1,1′-biphenyl]-2-carboxylic acid], the IC50 at GST-PPARG-LBD was determined as 0.5 nM. For the same compound, in experiment [1], the EC50 stood at 2.5 nM. The “PPRE transactivation (% in parentheses)” value in experiment [1] (rosiglitazone = 100%) is “(15%)”.

In the case of `Cc1c(C)n(Cc2ccc(-c3ccccc3C(=O)O)cc2)c2ccc(C(=O)N[C@@H](CO)c3ccccc3)cc12` [Example 79, (R)-4′-((5-(2-hydroxy-1-phenylethylcarbamoyl)-2,3-dimethyl-1H-indol-1-yl)methyl)biphenyl-2-carboxylic acid], on GST-PPARG-LBD, the IC50 came out at 37 nM. Also, in experiment [1], the EC50 is 297 nM. Also, the “PPRE transactivation (% in parentheses)” value in experiment [1] (rosiglitazone = 100%) is recorded as “(25%)”.

As to `CCC(NC(=O)c1ccc2c(ccn2Cc2ccccc2-c2ccc(C(=O)O)cc2)c1)c1ccccc1` (centres unmarked) [Example 70, 2′-((5-((1-Phenylpropyl)carbamoyl)-1H-indol-1-yl)methyl)-[1,1′-biphenyl]-4-carboxylic acid], on GST-PPARG-LBD, the IC50 is 10 nM. Besides, the “PPRE transactivation (% in parentheses)” value in experiment [1] is listed as “(0%)”.

For `Cc1c(C)n(Cc2ccc(-c3ccccc3C(=O)O)cc2)c2ccc(C(=O)NCc3ccc(I)cc3)cc12` [compound 7, 4′-((5-(4-Iodobenzylcarbamoyl)-2,3-dimethyl-1H-indol-1-yl)methyl)biphenyl-2-carboxylic acid], the IC50 on GST-PPARG-LBD was 4 nM. Also, the EC50 in experiment [1] came to 19 nM. In addition, the “PPRE transactivation (% in parentheses)” value in experiment [1] (rosiglitazone = 100%) was “(23%)”.
